Consider one compound from patent US20250283056A1, “MODIFIED O-[…] USEFUL FOR PRODUCTION OF O-METHYLATED PHENOLIC NATURAL PRODUCTS” (The University of Hong Kong, priority 2024, published 2025).

What is called Kd is the constant that tells how readily two partners part at equilibrium.

The structures appear in SMILES notation. Read-outs that look alike come from different tables or passages of the source.

One assay concerns the target SbSOMT E310A (Sorghum bicolor, UniProt A0A1B6PFV1, E310A). Description: biochemical. The class given is binding. The method, then: (§1) Desired mutations of SbSOMT were introduced into its construct using specific primers (Table 11). Expression constructs were transformed into Rosetta™ (DE3) competent Escherichia coli cells (Novagen, Germany). Protein expression was induced with 0.1 mM Isopropyl-β-thiogalactopyranoside (IPTG) overnight at 16° C. E. coli cells were harvested, resuspended in lysis buffer (20 mM Tris buffer pH 7.9, 300 mM NaCl, 2.5 mM β-mercaptoethanol), and lysed by sonication. Crude proteins were loaded onto a HisTrap HP column (Cytiva, USA) connected to a AKTA pure chromatography system (Cytiva, USA). Column was washed with 15 column volumes of lysis buffer with 50 mM imidazole. Proteins were eluted over a gradient of 50-500 mM imidazole. Eluate fractions with the target OMT were pooled, digested with TEV protease, and simultaneously dialyzed against a low salt buffer (20 mM Tris pH 7.9, 50 mM NaCl, 2.5 mM β-mercaptoethanol) overnight at 4° C. The dialyzed sample was filtered and flowed through HisTrap to remove His-tagged components. The flowthrough was then loaded to HiTrap Q FF columns (Cytiva, USA) over a gradient of 50-1000 mM NaCl. Polishing was achieved via size-exclusion chromatography using the storage buffer (100 mM HEPES pH 7.9, 100 mM NaCl) as mobile phase. SsSTS was purified under the same conditions except that the pH was adjusted to 7.0 for all buffers. Proteins were concentrated by ultrafiltration and flash frozen for storage at −80° C.
(§2) Isothermal titration calorimetry (ITC) assays were conducted with MicroCal iTC200 (Malvern Panalytical, UK). […] Both cell sample and titrant were equilibrated to ITC buffer consisting of 100 mM HEPES pH 7.9 with 2.5% (v/v) PEG 400. For ITC assays involving pterostilbene, PEG 400 concentration was increased to 5% (v/v). Each run incorporated an initial delay of 60 s prior to the first injection (0.5 μl) and spaced 150 s between the subsequent 19 injections (2.0 μl) at 25° C. During the runs, the cell was continuously stirred at 750 rpm by flat paddle. Results were analysed based on the 2nd to 20th injections using the Origin (MicroCal Software, USA) and PEAQ-ITC software (Malvern Panalytical, UK).

The subject of another assay is SbSOMT H282A. Description: Catalytic assay, SbSOMT H282A mutant protein. As to conditions: one-hour incubation. The class given is biochemical, Sorghum bicolor. From the text: (§3) Data are expressed as yields relative to that of wild-type SbSOMT protein (WT). […] Data are expressed as yields relative to that of wild-type SbSOMT protein (WT). Values refer to means±SD (n=3). Asterisks indicate significant differences between mutant protein and WT (Student's t-test, ***: p<0.001). Tricin was used as an internal standard for quantitation. […] Dots represent individual data points.
(§4) Desired mutations of SbSOMT were introduced into its construct using specific primers (Table 11). Expression constructs were transformed into Rosetta™ (DE3) competent Escherichia coli cells (Novagen, Germany). Protein expression was induced with 0.1 mM Isopropyl-β-thiogalactopyranoside (IPTG) overnight at 16° C. E. coli cells were harvested, resuspended in lysis buffer (20 mM Tris buffer pH 7.9, 300 mM NaCl, 2.5 mM β-mercaptoethanol), and lysed by sonication. […]
(§5) For initial screening of OMT activities, purified OMT enzymes (10 μg) were incubated in 100 mM HEPES buffer (pH 7.9), 200 μM S-adenosyl-L-methionine (SAM) and 100 μM of phenylpropanoid or stilbene substrates (final volume 200 μl) at 30° C. for 2 h. Enzyme kinetics were determined by incubating 1 μg protein with 100 mM HEPES buffer (pH 7.9), 300 μM SAM, and stilbene concentrations ranging from 5 to 200 μM at 30° C. for 5 min. […]

For the next assay, the target named is SbSOMT E342A (Sorghum bicolor, UniProt A0A1B6PFV1, E342A). The conditions noted are these: SbSOMT E342A incubated with resveratrol, one hour.
Text: as §3, §4, §5

The target of the next assay is SbSOMT D283A (Sorghum bicolor, UniProt A0A1B6PFV1, D283A). As to conditions: SbSOMT D283A incubated with resveratrol, one hour.
Text: as §3, §4, §5

In a further assay the test system is SsCOMT. Description: In vitro OMT enzyme assay, recombinant SsCOMT. The conditions noted are these: two-hour incubation with 100 μM substrate. The class given is biochemical, Saccharum spontaneum. The method, then: (§6) To screen for OMT activities, purified stilbene products of enzyme assays were separated by a Synergi C18 column (Synergi 4μ Fusion RP 80 Å, 50×2 mm, Phenomenex, USA) under a flow rate of 0.5 ml min-1 over a 6 min linear gradient of 10%-90% B (described below). […] Meanwhile, purified phenylpropanoid products of enzyme assays were separated on the same column connected to a HP1100 series HPLC system (Agilent Technologies, USA) linked to an AP3200-QTRAP mass spectrometer (AB Sciex, China) operating under the multiple-reaction-monitoring (MRM) mode. To quantify these products, assay products were separated on a Kinetex C18 column (Kinetex 2.6 μm C18 100 Å, 100×2.1 mm, Phenomenex, USA) connected to a HP1100 series HPLC system (Agilent Technologies, USA) linked to an AP3200-QTRAP mass spectrometer (AB Sciex, China) operating under the multiple-reaction-monitoring (MRM) mode. A linear gradient of 10%-90% B under a flow rate of 0.3 ml min-1 over 6 min was used to further enhance sensitivity. Total metabolites from all plant tissues were separated by the same Kinetex C18 column connected to the X500R QTOF-HRMS system. A linear gradient under a flow rate of 0.3 ml min-1 over a 20 min linear gradient of 10%-90% B was used.
(§7) Reaction products were extracted twice with ethyl acetate. […] All reactions were done in triplicates.

For a further assay, the target named is SbSOMT H282N/D283A (Sorghum bicolor, UniProt A0A1B6PFV1, D283A/H282N). Description: biochemical. The protocol:
as §1, §2

In another assay the target is SbSOMT I144N (Sorghum bicolor, UniProt A0A1B6PFV1, I144N). In words: biochemical. The protocol:
as §1, §2

For a further assay, the target named is SbSOMT (Sorghum bicolor, UniProt A0A1B6PFV1). In words: In vitro OMT enzyme assay, recombinant SbSOMT. The class given is biochemical. The conditions noted are these: two-hour incubation with 100 μM resveratrol. The method, then: as §6, §7
For a further assay, the target named is SbCOMT (Sorghum bicolor, UniProt Q84X55). In words: Isothermal titration calorimetry (ITC), SbCOMT wild type. Type of assay: binding. The method, then:
as §2

The next assay deals with SbSOMT I144N/F337N. In words: ITC, SbSOMT I144N/F337N mutant protein. The class given is binding, Sorghum bicolor. The method, then:
as §1, with “Polishing was achieved via size-exclusion chromatography using the storage buffer (100 mM HEPES pH 7.9, 100 mM NaCl) as mobile phase. SsSTS was purified under the same conditions except that the pH was adjusted to 7.0 for all buffers. Proteins were concentrated by ultrafiltration and flash frozen for storage at −80° C.” left out
Isothermal titration calorimetry (ITC) assays were conducted with MicroCal iTC200 (Malvern Panalytical, UK). […] Results were analysed based on the 2nd to 20th injections using the Origin (MicroCal Software, USA) and PEAQ-ITC software (Malvern Panalytical, UK).

As to `Oc1ccc(C=Cc2cc(O)cc(O)c2)cc1` [Resveratrol, resveratrol], the equilibrium dissociation constant (Kd) on SbSOMT E310A was 18.5 ± 2.58 µM; at SbSOMT H282N/D283A, 32.9 µM; at SbSOMT I144N it was 152 ± 31.1 µM; at SbSOMT I144N (SbSOMT mutant I144N, N fixed at 0.6 to estimate the Kd, ± SE), “significantly weakened binding”; at SbCOMT, 1.55 µM; at SbSOMT I144N/F337N, “No binding”. For the same compound, the equilibrium dissociation constant (Kd) result on SbSOMT I144N/F337N (listed as resveratrol) is “undetectable binding affinities”. Besides, the “Stoichiometry, N” value is 0.36 ± 0.04 on SbSOMT E310A (SbSOMT mutant E310A, ITC) and 0.61 ± 0.17 on SbSOMT H282N/D283A (SbSOMT mutant H282N/D283A, ITC). In addition, the “catalytic activity with resveratrol” value in the assay with SbSOMT H282A is given as “catalytically defective”. The pterostilbene formation entry on SbSOMT E342A and on SbSOMT D283A was “failed to generate pterostilbene” in each case. In addition, in the assay on SsCOMT, the “formation of O-methylated product” value was “only small amounts of pinostilbene were generated”. Further, the “conversion of resveratrol into pterostilbene” value on SbSOMT is given as “about 60%”.
